Columns and labels:
[1] = molecular target: cAMP-dependent protein kinase (PKA) (Homo sapiens, UniProt P22694+P17612+P22612); assay: Inhibition of PKA (unknown origin) using GST-SLP-76 as peptide substrate incubated for 10 mins in presence of [gamma-33P]ATP by scintillation counter assay; assay type: protein assay
[2] = Inhibition of CaMKII (unknown origin) using GST-SLP-76 as peptide substrate incubated for 10 mins in presence of [gamma-33P]ATP by scintillation counter assay; set-up: species or system Homo sapiens
[3] = molecular target: T1, Tyrosine-protein kinase ITK/TSK (Homo sapiens) (UniProt Q08881); assay: Inhibition of Itk in human Jurkat T cells assessed as inhibition of PLCgamma1 phosphorylation incubated for 20 mins in presence of CD3 antibody G19-4 by Western blotting analysis; assay type: cell-based; conditions: dose 0.1-10 µM
T1 sequence (whole entry): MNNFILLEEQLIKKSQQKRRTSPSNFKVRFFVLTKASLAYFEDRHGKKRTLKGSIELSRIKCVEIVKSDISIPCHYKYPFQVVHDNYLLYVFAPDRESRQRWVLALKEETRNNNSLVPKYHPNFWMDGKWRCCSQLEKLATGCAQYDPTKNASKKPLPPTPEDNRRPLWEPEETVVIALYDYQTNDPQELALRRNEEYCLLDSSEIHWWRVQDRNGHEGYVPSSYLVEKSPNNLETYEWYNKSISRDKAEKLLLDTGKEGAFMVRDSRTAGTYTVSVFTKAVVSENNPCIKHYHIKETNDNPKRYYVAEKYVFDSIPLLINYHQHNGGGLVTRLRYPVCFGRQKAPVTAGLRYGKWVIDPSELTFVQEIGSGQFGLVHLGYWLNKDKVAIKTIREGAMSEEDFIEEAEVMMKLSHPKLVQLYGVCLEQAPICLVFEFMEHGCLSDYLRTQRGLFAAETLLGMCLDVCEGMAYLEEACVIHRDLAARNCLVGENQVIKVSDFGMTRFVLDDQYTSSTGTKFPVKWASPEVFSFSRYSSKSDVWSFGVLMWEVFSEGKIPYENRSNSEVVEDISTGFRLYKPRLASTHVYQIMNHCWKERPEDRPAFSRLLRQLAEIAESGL

[4] = molecular target: Tyrosine-protein kinase ITK/TSK (Mus musculus) (UniProt Q03526); assay: (§1) Inhibition of Itk in mouse EL4 cells assessed as inhibition of IL-2 secretion incubated for 16 hrs in presence of anti-CD3 antibody G19-4 by ELISA analysis; assay type: cell-based
Chain of Tyrosine-protein kinase ITK/TSK (Mus musculus) (Q03526 whole entry): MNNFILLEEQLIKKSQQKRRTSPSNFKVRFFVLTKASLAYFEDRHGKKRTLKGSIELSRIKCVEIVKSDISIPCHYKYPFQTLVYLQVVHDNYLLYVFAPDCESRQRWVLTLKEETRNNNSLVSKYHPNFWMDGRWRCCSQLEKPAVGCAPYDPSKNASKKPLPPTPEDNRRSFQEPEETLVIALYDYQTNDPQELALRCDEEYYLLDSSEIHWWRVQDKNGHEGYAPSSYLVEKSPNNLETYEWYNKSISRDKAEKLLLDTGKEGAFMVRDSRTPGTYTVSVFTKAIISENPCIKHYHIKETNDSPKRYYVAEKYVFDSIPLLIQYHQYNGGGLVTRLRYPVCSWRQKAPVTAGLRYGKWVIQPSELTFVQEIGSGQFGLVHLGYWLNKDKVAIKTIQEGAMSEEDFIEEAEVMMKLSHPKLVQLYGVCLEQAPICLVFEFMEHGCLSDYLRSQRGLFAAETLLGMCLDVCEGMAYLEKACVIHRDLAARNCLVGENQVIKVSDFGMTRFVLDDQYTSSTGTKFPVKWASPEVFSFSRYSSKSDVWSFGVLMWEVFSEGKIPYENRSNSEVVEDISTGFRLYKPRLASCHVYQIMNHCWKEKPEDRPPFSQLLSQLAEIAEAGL

[5] = molecular target: Tyrosine-protein kinase ITK/TSK (Mus musculus, UniProt Q03526); assay: as §1; assay type: cell-based
Chain of Tyrosine-protein kinase ITK/TSK (Q03526 whole entry): as above

[6] = molecular target: Tyrosine-protein kinase Lck (Homo sapiens, UniProt P06239); assay: Inhibition of Lck (unknown origin) using GST-SLP-76 as peptide substrate incubated for 10 mins in presence of [gamma-33P]ATP by scintillation counter assay
Chain of Tyrosine-protein kinase Lck (P06239 whole entry): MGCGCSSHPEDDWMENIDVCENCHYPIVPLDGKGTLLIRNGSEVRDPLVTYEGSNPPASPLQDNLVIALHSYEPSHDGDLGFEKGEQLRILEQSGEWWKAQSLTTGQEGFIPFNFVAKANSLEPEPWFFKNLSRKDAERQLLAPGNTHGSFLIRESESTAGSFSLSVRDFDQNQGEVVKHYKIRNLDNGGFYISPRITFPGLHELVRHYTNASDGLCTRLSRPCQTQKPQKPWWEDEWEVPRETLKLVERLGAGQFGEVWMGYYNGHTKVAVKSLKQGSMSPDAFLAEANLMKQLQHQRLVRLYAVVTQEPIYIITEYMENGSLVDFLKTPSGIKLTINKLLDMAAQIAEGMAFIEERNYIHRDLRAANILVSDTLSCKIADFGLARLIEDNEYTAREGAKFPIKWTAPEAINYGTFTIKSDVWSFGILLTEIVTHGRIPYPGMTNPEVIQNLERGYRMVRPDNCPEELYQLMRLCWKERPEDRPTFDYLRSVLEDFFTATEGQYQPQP

[7] = molecular target: T2, Tyrosine-protein kinase TXK (Homo sapiens, UniProt P42681); assay: Inhibition of Txk (unknown origin) using GST-SLP-76 as peptide substrate incubated for 10 mins in presence of [gamma-33P]ATP by scintillation counter assay
T2 sequence (P42681 whole entry): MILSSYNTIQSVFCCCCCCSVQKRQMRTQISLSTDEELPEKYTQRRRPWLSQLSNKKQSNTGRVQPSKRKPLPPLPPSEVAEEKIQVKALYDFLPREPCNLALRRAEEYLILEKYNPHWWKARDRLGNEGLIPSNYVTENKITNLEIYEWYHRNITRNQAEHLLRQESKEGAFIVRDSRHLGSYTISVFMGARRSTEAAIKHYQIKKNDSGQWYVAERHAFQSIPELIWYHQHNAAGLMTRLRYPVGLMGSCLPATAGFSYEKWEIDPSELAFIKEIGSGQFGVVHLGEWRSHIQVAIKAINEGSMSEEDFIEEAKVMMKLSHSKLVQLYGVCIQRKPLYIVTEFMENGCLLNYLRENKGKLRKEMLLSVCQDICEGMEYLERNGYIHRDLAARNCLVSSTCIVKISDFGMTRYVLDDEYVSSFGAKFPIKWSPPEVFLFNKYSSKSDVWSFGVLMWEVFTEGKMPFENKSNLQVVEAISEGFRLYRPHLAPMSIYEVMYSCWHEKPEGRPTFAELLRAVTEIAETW

[8] = molecular target: Tyrosine-protein kinase Fyn (Homo sapiens, UniProt P06241); assay: Inhibition of Fyn (unknown origin) using GST-SLP-76 as peptide substrate incubated for 10 mins in presence of [gamma-33P]ATP by scintillation counter assay
Chain of Tyrosine-protein kinase Fyn (P06241 whole entry): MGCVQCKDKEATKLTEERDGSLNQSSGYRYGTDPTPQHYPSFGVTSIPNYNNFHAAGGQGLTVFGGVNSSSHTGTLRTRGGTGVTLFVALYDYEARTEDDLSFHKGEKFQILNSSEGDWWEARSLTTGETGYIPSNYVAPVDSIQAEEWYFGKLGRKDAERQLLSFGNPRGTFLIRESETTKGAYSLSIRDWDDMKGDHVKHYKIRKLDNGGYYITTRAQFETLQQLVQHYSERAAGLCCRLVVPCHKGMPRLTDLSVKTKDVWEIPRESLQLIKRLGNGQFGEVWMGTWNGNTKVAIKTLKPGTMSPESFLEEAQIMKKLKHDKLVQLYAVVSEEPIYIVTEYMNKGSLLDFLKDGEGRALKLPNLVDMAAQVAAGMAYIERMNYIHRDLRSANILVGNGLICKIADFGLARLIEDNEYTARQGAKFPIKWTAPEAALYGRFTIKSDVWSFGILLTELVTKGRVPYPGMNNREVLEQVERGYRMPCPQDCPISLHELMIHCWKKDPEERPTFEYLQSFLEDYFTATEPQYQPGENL

[9] = molecular target: Glycogen synthase kinase-3 beta (Homo sapiens, UniProt P49841); assay: Inhibition of GSK-3beta (unknown origin) using GST-SLP-76 as peptide substrate incubated for 10 mins in presence of [gamma-33P]ATP by scintillation counter assay
Chain of Glycogen synthase kinase-3 beta (P49841 whole entry): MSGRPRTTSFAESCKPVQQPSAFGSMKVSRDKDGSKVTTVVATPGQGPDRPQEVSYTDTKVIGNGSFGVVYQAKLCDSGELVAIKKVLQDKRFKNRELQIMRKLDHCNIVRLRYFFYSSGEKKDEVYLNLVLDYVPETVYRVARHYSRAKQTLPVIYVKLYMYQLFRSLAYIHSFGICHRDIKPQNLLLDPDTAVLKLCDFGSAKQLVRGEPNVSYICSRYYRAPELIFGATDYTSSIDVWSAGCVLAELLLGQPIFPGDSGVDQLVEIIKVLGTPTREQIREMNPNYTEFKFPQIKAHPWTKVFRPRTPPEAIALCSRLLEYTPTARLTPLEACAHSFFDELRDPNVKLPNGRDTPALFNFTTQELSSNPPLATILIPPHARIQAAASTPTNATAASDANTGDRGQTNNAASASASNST

[10] = molecular target: Tyrosine-protein kinase SYK (Homo sapiens, UniProt P43405); assay: Inhibition of Syk (unknown origin) using GST-SLP-76 as peptide substrate incubated for 10 mins in presence of [gamma-33P]ATP by scintillation counter assay
[11] = molecular target: Inhibitor of nuclear factor kappa-B kinase subunit beta (Homo sapiens, UniProt O14920); assay: Inhibition of IKKbeta (unknown origin) using GST-SLP-76 as peptide substrate incubated for 10 mins in presence of [gamma-33P]ATP by scintillation counter assay
Chain of Inhibitor of nuclear factor kappa-B kinase subunit beta (O14920 whole entry): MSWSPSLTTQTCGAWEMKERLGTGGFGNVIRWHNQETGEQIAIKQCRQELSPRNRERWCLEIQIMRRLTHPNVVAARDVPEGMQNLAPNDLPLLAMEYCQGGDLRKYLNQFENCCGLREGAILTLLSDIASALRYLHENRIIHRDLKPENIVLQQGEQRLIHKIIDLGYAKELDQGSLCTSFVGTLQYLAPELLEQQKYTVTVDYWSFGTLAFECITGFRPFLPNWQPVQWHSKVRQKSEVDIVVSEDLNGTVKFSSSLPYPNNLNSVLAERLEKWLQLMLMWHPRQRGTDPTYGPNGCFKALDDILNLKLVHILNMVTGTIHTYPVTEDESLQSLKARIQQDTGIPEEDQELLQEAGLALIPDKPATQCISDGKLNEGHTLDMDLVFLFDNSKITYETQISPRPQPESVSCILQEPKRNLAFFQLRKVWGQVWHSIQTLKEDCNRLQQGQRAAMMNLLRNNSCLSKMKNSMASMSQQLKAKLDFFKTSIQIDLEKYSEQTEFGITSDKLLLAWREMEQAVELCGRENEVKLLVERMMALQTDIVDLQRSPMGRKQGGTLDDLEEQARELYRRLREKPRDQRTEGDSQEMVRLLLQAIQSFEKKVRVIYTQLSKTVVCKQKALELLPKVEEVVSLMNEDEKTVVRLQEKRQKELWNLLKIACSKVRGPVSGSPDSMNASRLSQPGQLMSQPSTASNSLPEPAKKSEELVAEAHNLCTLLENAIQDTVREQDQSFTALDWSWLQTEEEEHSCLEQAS

[12] = molecular target: T3, Tyrosine-protein kinase Tec (Homo sapiens, UniProt P42680); assay: Inhibition of Tec (unknown origin) using GST-SLP-76 as peptide substrate incubated for 10 mins in presence of [gamma-33P]ATP by scintillation counter assay
T3 sequence (P42680 whole entry): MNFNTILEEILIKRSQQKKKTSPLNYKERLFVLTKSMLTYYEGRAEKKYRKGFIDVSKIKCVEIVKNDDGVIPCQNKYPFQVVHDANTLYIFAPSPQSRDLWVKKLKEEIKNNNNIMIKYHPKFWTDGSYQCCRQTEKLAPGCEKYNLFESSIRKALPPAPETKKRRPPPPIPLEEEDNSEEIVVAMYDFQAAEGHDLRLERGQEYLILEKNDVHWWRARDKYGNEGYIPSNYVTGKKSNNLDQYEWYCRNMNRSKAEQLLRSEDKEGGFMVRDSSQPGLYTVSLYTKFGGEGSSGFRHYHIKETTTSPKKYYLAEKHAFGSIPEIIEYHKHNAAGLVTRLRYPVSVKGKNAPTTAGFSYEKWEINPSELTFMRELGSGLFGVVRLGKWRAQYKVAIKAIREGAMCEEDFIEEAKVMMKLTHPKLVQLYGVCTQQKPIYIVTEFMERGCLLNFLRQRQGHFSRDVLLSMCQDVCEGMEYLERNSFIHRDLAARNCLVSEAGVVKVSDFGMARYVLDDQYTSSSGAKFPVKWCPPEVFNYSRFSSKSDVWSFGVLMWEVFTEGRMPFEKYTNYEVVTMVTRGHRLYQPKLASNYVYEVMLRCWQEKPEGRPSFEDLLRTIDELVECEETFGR

[13] = molecular target: Mitogen-activated protein kinase 3 (Homo sapiens, UniProt P27361); assay: Inhibition of ERK-1 (unknown origin) using GST-SLP-76 as peptide substrate incubated for 10 mins in presence of [gamma-33P]ATP by scintillation counter assay
Chain of Mitogen-activated protein kinase 3 (P27361 whole entry): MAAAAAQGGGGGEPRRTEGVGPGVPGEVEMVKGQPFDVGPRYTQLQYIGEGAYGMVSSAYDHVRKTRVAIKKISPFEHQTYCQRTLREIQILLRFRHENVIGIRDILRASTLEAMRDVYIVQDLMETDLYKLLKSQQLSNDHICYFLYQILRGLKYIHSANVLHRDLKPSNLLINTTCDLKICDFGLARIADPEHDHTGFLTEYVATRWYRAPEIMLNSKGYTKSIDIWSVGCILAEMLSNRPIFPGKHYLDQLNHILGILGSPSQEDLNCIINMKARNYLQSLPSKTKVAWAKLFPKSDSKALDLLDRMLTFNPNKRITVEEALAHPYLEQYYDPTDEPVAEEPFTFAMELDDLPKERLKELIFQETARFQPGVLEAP

SMILES	IC50 [1] [µM]	IC50 [2] [µM]	inhibition [3]	inhibition [4]	IC50 [5] [µM]	IC50 [6] [µM]	IC50 [7] [µM]	IC50 [8] [µM]	IC50 [9] [µM]	IC50 [10] [µM]	IC50 [11] [µM]	IC50 [12] [µM]	IC50 [13] [µM]
CC(=O)N1CCN(C(=O)c2cc(CSc3cnc(NC(=O)c4ccc(CNC(C)C(C)(C)C)cc4)s3)cc(C)c2C)CC1 (centres undefined)	> 50	> 50	Dose-Dependent Effect	Dose-Dependent Effect	0.25	27	> 50	8.6	47.4	> 50	> 50	> 50	> 50
COc1cc(C)c(Sc2cnc(NC(=O)c3ccc(CNC(C)C(C)(C)C)cc3)s2)cc1C(=O)N1CCN(C(C)=O)CC1 (centres undefined)	> 50	33.5	Dose-Dependent Effect	–	–	2.4	11	1.1	36	> 50	> 50	17	> 50
